# From PMC11672551, “Cyclic Ruthenium-Peptide Prodrugs Penetrate the Blood–Brain Barrier and Attack Glioblastoma upon Light Activation in Orthotopic Zebrafish Tumor Models” (ACS Central Science, 2024)
# Tests used:
# [1] = tested on: U87MG-wt and U87MG-kd (ITGAV, integrin αV knockdown) cells; assay: Cellular ruthenium uptake by ICP-MS in wild type vs ITGAV knockdown cells; type: cell-based, human; details: normoxia, 10 μM, 3 h, 2D monolayers, n = 3
# Description: Figure 2 Integrin targeting by Ru-p(HH), Ru-p(MH), and Ru-p(MM)in vitro. (a, b) Expression of integrin (a) αVβ3 and (b) αVβ5 in MCF7, PC-3, A549, MDA-MB-231, U87MG, and U87MG-kd cell lines under normoxic (21% O2) or hypoxic (1% O2) conditions. Note a: ITGAV was knockdown; see Methods. Bars represent the fluorescence intensity of the cells incubated with either anti-integrin αVβ3 or αVβ5 monoclonal antibodies followed by a secondary antibody conjugated to Alexa-Fluor 488. Error: standard deviation (SD), n = 2. (c) Ruthenium accumulation (μg Ru/million cells) of wild type U87MG (U87MG-wt) and ITGAV knockdown U87MG (U87MG-kd) cell lines after treatment with medium (control), Ru-p(HH), Ru-p(MH), Ru-p(MM), or [Ru(Ph2phen)2(bpy)]Cl2 (normoxia, 10 μM, 3 h). Error: standard deviation (SD), n = 3. Two-way ANOVA was used to determine the significance of the comparisons of data (*P < 0.05, **P < 0.01, ***P < 0.001, ****P < 0.0001).
# In order to check whether the integrins […] were responsible for the cellular uptake of these conjugates, an ITGAV (integrin αV) knockdown U87MG cell line (U87MG-kd, Figure 2a,b) was prepared, and the cellular ruthenium uptake was measured using ICP-MS in wild type and knockdown U87MG 2D cell monolayers (Figure 2c). […]
# [2] = tested on: U87MG tumor cells in zebrafish hindbrain; assay: Tumor targeting in zebrafish embryos, colocalization of drug emission with GFP-U87MG cells in the hindbrain; type: in vivo; details: 2 pmol, line-scan profiles of high-resolution images (Figure S35)
# Description: In a second step, the targeting of GBM cells by Ru-p(HH) was tested by detecting the colocalization of the red-emissive drug (excitation: 488 nm; emission detector window: 630–774 nm) with GFP-U87MG cells (excitation: 488 nm; emission: 485–575 nm). To clearly see the distribution of the drug and of the cancer cells in zebrafish, we used Tg(kdrl:mTurquoise)^hu7185Tg embryos. In this transgenic fish line, the blood vessels of the embryos are labeled by the mTurquoise fluorescent protein, which can be excited at 405 nm and emits at 464–480 nm. As shown in Figure 5a and Figure S33a, when only tumor cells were injected into the hindbrain of the zebrafish embryo, GFP was the only signal detected. […] By calculating the distribution and intensity of Ru-p(HH) emission in the region of U87MG cells in the brain, the PCC and MOC values for the top-down view of the hindbrain were determined to be 0.49 and 0.79, respectively, while those in the side images were 0.77 and 0.66 (Figure 5b, Figure S33b).
# Figure 5 Targeting a U87MG brain tumor with Ru-p(HH)in vivo. […] The Z-axis is the cell fluorescence intensity (green) and the drug fluorescence intensity (purple). […] Both PCC and MOC are calculated and are shown in the graph. […]
substance,measurement,setting,value
[Ru(Ph2phen)2(bpy)]Cl2,cellular ruthenium uptake in U87MG-kd compared to wild type U87MG,[1],not lowered
same,"MOC between prodrug and tumor, comparison with RGD-free control",[2],0.35
same,"PCC between prodrug and tumor, comparison with RGD-free control",[2],−0.2
